Patent US20250304643A1, “PEPTIDE DUAL AGONISTS OF GIPR AND GLP2R” (BAINAN BIOTECH APS, priority 2021, published 2025)
Where two headings read alike, the source gives them in different places.

What was measured:
Type in all cases: cell-based
human GLP-2R = biological target: T1, human GLP-2R (Homo sapiens, UniProt O95838); assay: HitHunter cAMP assay in transiently transfected COS-7 cells, human GLP-2R; conditions: Emax normalized to highest concentration of endogenous ligand; Table 2;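 note: cells kept 30 min at 37 °C in buffer with 1 mM IBMX, then given ligand for another 30 min at 37 °C before cAMP readout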
T1 construct: host or cells: COS-7
T1 sequence (O95838 1-553): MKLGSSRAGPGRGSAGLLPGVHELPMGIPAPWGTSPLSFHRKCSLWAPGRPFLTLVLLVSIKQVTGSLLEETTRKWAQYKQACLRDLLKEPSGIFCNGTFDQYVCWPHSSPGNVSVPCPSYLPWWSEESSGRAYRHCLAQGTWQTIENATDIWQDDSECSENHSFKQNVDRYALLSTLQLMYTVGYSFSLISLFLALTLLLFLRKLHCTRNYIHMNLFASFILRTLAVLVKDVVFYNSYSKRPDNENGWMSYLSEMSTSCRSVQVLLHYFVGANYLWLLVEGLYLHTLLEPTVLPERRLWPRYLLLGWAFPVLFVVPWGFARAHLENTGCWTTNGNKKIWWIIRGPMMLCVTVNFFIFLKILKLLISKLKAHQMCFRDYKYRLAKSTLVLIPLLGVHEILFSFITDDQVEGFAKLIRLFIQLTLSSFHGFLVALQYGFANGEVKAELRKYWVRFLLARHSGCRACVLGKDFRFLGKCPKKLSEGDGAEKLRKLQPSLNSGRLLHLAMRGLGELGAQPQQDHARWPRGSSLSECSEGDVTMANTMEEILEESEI
Procedure: COS-7 cells were cultured at 10% CO2 and 37° C. in Dulbecco's Modified Eagle Medium (DMEM) 1885 supplemented with 10% fetal bovine serum (FBS), 2 mM glutamine, 180 units/ml penicillin, and 45 g/ml streptomycin.
The next day the assay was initiated by washing with HEPES buffered saline (HBS) and followed by an incubation step with assay buffer (HBS added 1 mM isobutyl-1-methylxanthine (IBMX)) for 30 min at 37° C. The ligands were then added and incubated for an additional 30 min at 37° C. After ligand incubation, the HitHunter® CAMP assay (Eurofins DiscoverX, Fremont, 150 USA) was carried out according to the manufacturer's instructions. Luminescence was measured by PerkinElmer™ EnVision 2014 Multilabel Reader (PerkinElmer, Waltham, MA). The potencies (EC50 values) were determined by nonlinear regression using GraphPad Prism 9 (San Diego, California, USA). Sigmoid curves were fitted logistically. The efficacies (Emax values) were determined by normalization to the highest concentration applied of the endogenous ligand for each receptor.

human GLP-1R = biological target: T2, human GLP-1R (Homo sapiens, UniProt P43220); assay: HitHunter cAMP assay in transiently transfected COS-7 cells, human GLP-1R; conditions: Emax normalized to highest concentration of endogenous ligand; Table 3
T2 construct: host or cells: COS-7
Procedure: (§1) The next day the assay was initiated by washing with HEPES buffered saline (HBS) and followed by an incubation step with assay buffer (HBS added 1 mM isobutyl-1-methylxanthine (IBMX)) for 30 min at 37° C. The ligands were then added and incubated for an additional 30 min at 37° C. After ligand incubation, the HitHunter® CAMP assay (Eurofins DiscoverX, Fremont, […] USA) was carried out according to the manufacturer's instructions. Luminescence was measured by PerkinElmer™ EnVision 2014 Multilabel Reader (PerkinElmer, Waltham, MA). The potencies (EC50 values) were determined by nonlinear regression using GraphPad Prism 9 (San Diego, California, USA). Sigmoid curves were fitted logistically. The efficacies (Emax values) were determined by normalization to the highest concentration applied of the endogenous ligand for each receptor.

rat GIPR = biological target: T3, rat GIPR (Rattus norvegicus, UniProt P43219); assay: HitHunter cAMP assay in transiently transfected COS-7 cells, rat GIPR; conditions: Emax normalized to highest concentration of endogenous ligand
T3 construct: expressed in transfected cells; host or cells: COS-7
T3 sequence (P43219 19-455): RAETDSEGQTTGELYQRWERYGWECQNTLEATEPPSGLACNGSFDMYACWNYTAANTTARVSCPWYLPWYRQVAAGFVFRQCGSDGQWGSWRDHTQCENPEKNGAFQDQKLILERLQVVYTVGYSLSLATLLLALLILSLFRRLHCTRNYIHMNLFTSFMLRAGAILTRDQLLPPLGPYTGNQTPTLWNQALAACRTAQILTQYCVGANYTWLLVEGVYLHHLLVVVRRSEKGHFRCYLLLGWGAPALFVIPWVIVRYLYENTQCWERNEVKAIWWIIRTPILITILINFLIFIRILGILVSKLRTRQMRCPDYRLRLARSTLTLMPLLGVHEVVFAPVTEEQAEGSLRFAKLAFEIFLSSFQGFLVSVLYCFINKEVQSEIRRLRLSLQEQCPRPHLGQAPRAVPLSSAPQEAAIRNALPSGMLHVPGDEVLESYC
Procedure: as §1

rat GLP-2R = biological target: T4, rat GLP-2R (Rattus norvegicus, UniProt Q9Z0W0); assay: HitHunter cAMP assay in transiently transfected COS-7 cells, rat GLP-2R; conditions: Emax normalized to highest concentration of endogenous ligand
T4 construct: expressed in transfected cells; host or cells: COS-7
T4 sequence (Q9Z0W0 1-550): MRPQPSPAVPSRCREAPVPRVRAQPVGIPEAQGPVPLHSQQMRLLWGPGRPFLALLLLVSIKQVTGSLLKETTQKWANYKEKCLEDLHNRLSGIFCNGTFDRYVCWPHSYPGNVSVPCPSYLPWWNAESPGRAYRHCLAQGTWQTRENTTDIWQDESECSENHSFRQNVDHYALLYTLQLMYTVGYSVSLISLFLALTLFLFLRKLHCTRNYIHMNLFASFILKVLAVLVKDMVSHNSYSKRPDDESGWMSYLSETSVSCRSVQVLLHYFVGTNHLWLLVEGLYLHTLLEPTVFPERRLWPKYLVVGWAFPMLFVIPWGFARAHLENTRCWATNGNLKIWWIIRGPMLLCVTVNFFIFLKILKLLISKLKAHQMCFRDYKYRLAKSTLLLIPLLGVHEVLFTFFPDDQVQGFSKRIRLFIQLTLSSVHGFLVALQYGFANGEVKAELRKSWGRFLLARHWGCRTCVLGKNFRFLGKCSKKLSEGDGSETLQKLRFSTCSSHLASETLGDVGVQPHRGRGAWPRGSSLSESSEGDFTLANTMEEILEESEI
Procedure: as §1

human GIPR [1] = biological target: T5, human GIPR (Homo sapiens, UniProt P48546); design: host or cells: COS-7; conditions: Emax normalized to highest concentration of endogenous ligand; Table 2
T5 sequence (P48546 22-466): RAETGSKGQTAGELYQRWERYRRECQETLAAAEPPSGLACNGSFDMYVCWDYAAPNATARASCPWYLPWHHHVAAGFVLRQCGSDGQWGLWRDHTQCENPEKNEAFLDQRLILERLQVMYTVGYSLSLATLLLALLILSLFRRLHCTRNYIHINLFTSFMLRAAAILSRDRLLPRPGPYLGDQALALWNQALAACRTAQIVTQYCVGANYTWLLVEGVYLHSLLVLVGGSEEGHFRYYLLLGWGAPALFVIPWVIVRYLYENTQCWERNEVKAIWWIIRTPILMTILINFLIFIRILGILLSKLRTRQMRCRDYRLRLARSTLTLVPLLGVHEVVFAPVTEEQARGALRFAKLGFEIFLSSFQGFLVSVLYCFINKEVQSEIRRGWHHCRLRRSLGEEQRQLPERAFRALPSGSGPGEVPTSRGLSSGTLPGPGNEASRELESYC

human SNAP-GIPR = biological target: T6, human SNAP-GIPR (Homo sapiens, UniProt P48546); design: AUC ± SD: unit not given beside the values; conditions: for Emax ± SD (%): NA = no activity
T6 construct: host or cells: HEK293A
T6 sequence (P48546 22-466): T5 sequence (P48546 22-466)

human GIPR [2] = biological target: T5, human GIPR; design: host or cells: HEK293; conditions: beta-arrestin 2 recruitment; for AUC ± SD: AUC of sigmoid curves up to 100 nM; for Emax ± SD (%): normalized to highest concentration of GIP, NA = no activity
Procedure: HEK293 cells were cultured at 10% CO2 and 37° C. in DMEM-GlutaMAX™-I supplemented with 10% FBS, 180 units/mL penicillin and 45 g/mL streptomycin. These cells were transfected using PEI for the beta-arrestin recruitment assay as described in detail in (van der Velden et al., 2021).
HEK293 cells were transiently transfected with human GIPR, the donor Rluc8-Arrestin-3-Sp1 (beta-arrestin 2 recruitment), the acceptor mem-linker-citrine-SH3, and the GPCR kinase 2 (GRK2). Two days following transfection, the cells were washed with PBS and resuspended in PBS with 5 mM glucose. Then, 85 μL of the cell suspension solution was added to each well of a white 96-well plate followed by the addition of PBS with 5 μM coelenterazine-h. Following 10 min incubation, increasing concentrations of ligands were added and incubated for an additional 30 min. Luminescence was measured with the Berthold Technologies Mithras Multilabel Reader (Rluc8 at 485±40 nm and YFP at 530±25 nm). The potencies (EC50 values) were determined by nonlinear regression using GraphPad Prism 9 (San Diego, California, USA). Sigmoid curves were fitted logistically. The efficacies (Emax values) were determined by normalization to the highest concentration applied of the endogenous ligand (GIP) for the GIPR.

macaque GIPR = assay: HitHunter cAMP assay in transiently transfected COS-7 cells, macaque GIPR
Procedure: as §1

T2 sequence (P43220 24-463): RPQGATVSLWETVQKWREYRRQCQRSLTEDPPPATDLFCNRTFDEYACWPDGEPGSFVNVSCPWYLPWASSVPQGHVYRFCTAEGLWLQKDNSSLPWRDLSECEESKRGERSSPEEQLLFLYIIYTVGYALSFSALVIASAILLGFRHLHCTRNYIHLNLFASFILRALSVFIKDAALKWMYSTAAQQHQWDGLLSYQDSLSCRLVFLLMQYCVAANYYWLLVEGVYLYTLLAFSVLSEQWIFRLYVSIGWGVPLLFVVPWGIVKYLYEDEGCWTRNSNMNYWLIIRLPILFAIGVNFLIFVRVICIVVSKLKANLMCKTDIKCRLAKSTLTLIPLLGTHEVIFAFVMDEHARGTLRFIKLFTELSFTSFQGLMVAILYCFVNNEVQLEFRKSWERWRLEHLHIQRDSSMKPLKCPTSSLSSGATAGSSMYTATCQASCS

| Substance | Efficacy GLP-2R (human GLP-2R) | Efficacy GLP-1R (human GLP-1R) | rGIPR Efficacy (%) (rat GIPR) | rGLP-2R Efficacy (%) (rat GLP-2R) | Efficacy GIPR (human GIPR [1]) | AUC ± SD (human SNAP-GIPR; GIPR internalization, AUC of sigmoid curves up to 1 μM) | Emax ± SD (%) (human SNAP-GIPR; GIPR internalization) | AUC ± SD (human SNAP-GIPR) | AUC ± SD (human GIPR [2]) | Emax ± SD (%) (human GIPR [2]) | maGIPR Efficacy (%) (macaque GIPR; Emax normalized to highest concentration of the endogenous ligand, COS-7 cells) | maGIPR pEC50 (macaque GIPR; cAMP, transiently transfected COS-7 cells) |
| --- | --- | --- | --- | --- | --- | --- | --- | --- | --- | --- | --- | --- |
| (C10)H-Aib-DGTFISDYST-Aib-LDNLAARDFINWLIQTKITK-OH [Compound no. 44] | 100 | 19 | 87.3% | 90.0% | 110 | – | – | – | – | – | – | – |
| (C16)HADGTFISDYSTAibLDNLAARDFINWLIQTKITKNDWKHNITQ [Compound no. 53] | 79 | – | 77.3% | 18.0% | 90 | – | – | – | – | – | – | – |
| Ac-H-Aib-DGTFISDYS-K(γGlu-C16)-Aib-LDNLAARDFINWLIQTKITK-OH [Compound no. 36] | 76 | 19 | – | – | 92 | 47 ± 1 | 58 ± 8% | – | – | – | – | – |
| H-Aib-DG-K(γGlu-C10)-FISDYST-Aib-LDNLAARDFINWLIQTKITK-OH [Compound no. 24] | 90 | – | 96.3% | 76.3% | 113 | – | 68 ± 3% | 113 ± 4 | 117 ± 31 | 57 ± 16% | – | – |
| H-Aib-DG-K(γGlu-C16 diacid)-FISDYST-Aib-LDNLAARDFINWLIQTKITK-OH [Compound no. 25] | 88 | – | 71.7% | 65.0% | 93 | – | 46 ± 2% | 57 ± 2 | 42 ± 15 | 23 ± 7% | – | – |
| H-Aib-DG-K(γGlu-C16)-FISDYSTILDNLAARDFINWLIQTKITK-OH [Compound no. 9] | 91 | 32 | 74.3% | 82.0% | 110 | – | – | – | – | – | – | – |
| H-Aib-DGTFISDY-K(yglu-C10)-T-Aib-LDNLAARDFINWLIQTKITGNDWKHNITQ-OH [Compound no. 54] | 87 | 8 | 110.3% | 108.0% | 86 | – | – | – | – | – | 71.8% | 7.7 |
| H-Aib-DGTFISDY-K(γGlu-C10)-TILDKLAARDFIEWLIATKITK-OH [Compound no. 31] | 90 | 6 | 85.0% | 86.3% | 89 | – | – | 0 | 0 | – | – | – |
| H-Aib-DGTFISDY-K(γGlu-C16)-T-Aib-LDALAARDFIEWLIQTKITK-OH [Compound no. 33] | 97 | – | 98.7% | 96.3% | 101 | – | 25 ± 3% | 27 ± 2 | 23 ± 12 | 9 ± 5% | – | – |
| H-Aib-DGTFISDY-K(γGlu-C16)-TAib-LDNLAARDFINWLIQTKITKNDWKHNITQ-OH [Compound no. 37] | 97 | – | 91.0% | 83.3% | – | – | 24 ± 5% | 15 ± 4 | 0 | 15 ± 41% | – | – |
| H-Aib-DGTFISDY-K(γGlu-C16)-TILDNLAARDFINWLIQTKGKKNDWKHNITQ-NH2 [Compound no. 14] | 114 | 0 | 98.3% | 93.3% | 101 | – | – | – | – | – | – | – |
| H-Aib-DGTFISDYS-K(γGlu-C16)-Aib-LDNLAARDFINWLIQTKITK-OH [Compound no. 35] | 88 | 31 | 86.3% | 87.3% | 106 | – | – | – | 58 ± 14 | 34 ± 7% | – | – |
| H-Aib-DGTFISDYSTIL-K(γGlu-C16)-NLAARDFINWLIQTKITK-OH [Compound no. 13] | 95 | 4 | 69.7% | 83.7% | 95 | – | – | – | – | – | – | – |
| H-Aib-EG-K(γGlu-C16)-FISDYST-Aib-LDNLAARDFINWLIQTKITK-OH [Compound no. 27] | 108 | 0 | – | – | 98 | – | – | – | – | – | – | – |
